Measured values: article PMC3984012 (Journal of Acquired Immune Deficiency Syndromes (1999), 2014)

How the values were obtained:
[1] = test system: CYP3A and OATP1B1; settings: coadministered with atorvastatin; cited from earlier work
[2] = test system: OATP1B1; settings: read-out: OATP1B1 IC50; in vitro data; cited from earlier work
[3] = test system: CYP3A; settings: oral coadministration of midazolam; cited from earlier work
[4] = cited from earlier work; for AUC8 previously reported / C8 previously reported: dosed alone, range; for Mean historical minimum plasma concentration (Cmin): historical data
[5] = Plasma BOC and TVR pharmacokinetics when coadministered with MVC; assay type: in vivo, human; settings: coadministered with MVC 150 mg BID
[6] = test system: P-gp; settings: cited from earlier work
[7] = test system: HIV-1; settings: cited from earlier work

Molecule | Increase in AUC (exposure) of atorvastatin [1] | IC50 [2] | Increase in AUC of midazolam [3] | AUC8 previously reported [4] | C8 previously reported [4] | Mean historical minimum plasma concentration (Cmin) [4] | Exposures when coadministered with MVC compared with historical data [5] | Increase in AUC of digoxin [6] | Cavg exposure at which near maximal virologic efficacy is achieved [7]
CC(C)(C)NC(=O)N[C@H](C(=O)N1C[C@H]2[C@@H]([C@H]1C(=O)NC(CC1CCC1)C(=O)C(N)=O)C2(C)C)C(C)(C)C (some centres unmarked) [BOC, Boceprevir] | 2.30 fold | 18 µM | 430% | 4601 to 7070 ng·h/mL | 88.5 to 111 ng/mL | 102 ng/mL | consistent with historical data | 19% | 
CCC[C@H](NC(=O)[C@@H]1[C@H]2CCC[C@H]2CN1C(=O)[C@@H](NC(=O)[C@@H](NC(=O)c1cnccn1)C1CCCCC1)C(C)(C)C)C(=O)C(=O)NC1CC1 [TVR, Telaprevir] | 7.88 fold | 2.2 µM | 796% | 18157 to 22300 ng·h/mL | 1505 to 2030 ng/mL | 1802 ng/mL | consistent with historical data | 85% | 
Maraviroc [MVC] |  |  |  |  |  |  |  |  | 75–100 ng/mL
